Square brackets hold non-standard residues; d marks the D form. Peptide text beside a SMILES is read from it. dCha = N[C@H](CC1CCCCC1)C(=O)O; dNle = CCCC[C@@H](N)C(=O)O
target: T1, κ receptor (Cavia porcellus, UniProt P41144); experiment: Radioreceptor assay selective for the kappa receptor (inhibition of [3H]-U69,593 binding); set-up: species or system guinea pig
T1 construct: tissue homogenates prepared from guinea pig brains (cortex and cerebellum); tissue Harlan Bioproducts for Science (Indianapolis, Ind.); host or cells: guinea pig brain, cortex and cerebellum, crude membrane homogenate
Protocol: Guinea pig brains, frozen in liquid nitrogen, were obtained from Harlan Bioproducts for Science (Indianapolis, Ind.). Frozen brains were thawed, the cerebella and cortex were removed and weighed. The combined cortex and cerebella were homogenized in 40 ml Tris-HCl buffer (50 mM, pH 7.4, 4° C.) containing 100 μM phenylmethylsulfonyl fluoride (PMSF) 5 mM MgCl2 and 1 mg/ml bovine serum albumin (BSA) and centrifuged (39000×g) (Model J2-HC; Beckman Instruments, Fullerton, Calif.) for 10 min at 4° C. The pellets were resuspended in fresh Tris-HCl buffer and incubated at 37° C. for 40 min. Following incubation, the suspensions were centrifuged as above, the resulting pellets resuspended in 100 volumes of Tris buffer and the suspensions combined. Membrane suspensions were prepared and used in the same day. Protein content of the crude homogenates ranged from 0.1-0.3 mg/ml as determined using the method described by Bradford in Anal. Biochem. 72:248-254 (1976), which is incorporated herein by reference.
Binding assays were carried out in polypropylene tubes. […] Assay tubes were incubated for 2.5 hr at 25° C. The reaction was terminated by filtration through GF-B filters (Wallac, Gaithesburg, Md.). The filters were subsequently washed with 6 ml Tris-HCl buffer at 4° C. Bound radioactivity was counted on a Beta-plate Liquid Scintillation Counter (Life Technologies, Gaithersburg, Md.) and expressed in counts per minute (cpm). Standard curves were prepared using 0.05-6300 nM naloxone (Sigma, St. Louis, Mo.). Competitive inhibition assays were performed as above using serial dilutions of the peptide mixtures. IC50 values were then calculated using the software […] (ISI, San Diego, Calif.).

T1 sequence (P41144 whole entry): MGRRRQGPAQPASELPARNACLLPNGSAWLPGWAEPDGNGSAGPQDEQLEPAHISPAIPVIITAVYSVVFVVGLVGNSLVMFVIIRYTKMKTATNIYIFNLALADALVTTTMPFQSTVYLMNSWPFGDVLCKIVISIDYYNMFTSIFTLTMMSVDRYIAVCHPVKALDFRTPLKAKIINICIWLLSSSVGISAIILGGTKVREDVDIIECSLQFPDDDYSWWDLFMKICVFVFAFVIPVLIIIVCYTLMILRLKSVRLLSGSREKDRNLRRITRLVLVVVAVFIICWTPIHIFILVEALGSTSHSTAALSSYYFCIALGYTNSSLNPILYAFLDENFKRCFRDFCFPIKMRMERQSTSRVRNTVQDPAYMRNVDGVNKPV

Compound | IC50 [µM]
N[C@H](Cc1ccccc1)C(=O)N[C@H](Cc1ccccc1)C(=O)N[C@@H](Cc1c[nH]c2ccccc12)C(=O)N[C@H](CC1CCCCC1)C(=O)O [SEQ ID NO. 15, (D)Phe-(D)Phe-Trp-(D)ChAla] (H-[dF][dF]W[dCha]-OH) | 52.4
Ac-YRFRYRYRRR-NH2 [SEQ ID NO. 2] | 0.018
CC[C@@H](C)[C@@H](NC(=O)[C@@H](Cc1ccccc1)NC(=O)[C@H](N)Cc1ccccc1)C(=O)N[C@H](CC1CCCCC1)C(=O)O [SEQ ID NO. 17, (D)Phe-(D)Phe-(D)Ile-(D)ChAla] (H-[dF][dF][dI][dCha]-OH) | 0.169
CCCC[C@@H](N)C(=O)N[C@H](Cc1ccccc1)C(=O)N[C@@H](Cc1c[nH]c2ccccc12)C(=O)N[C@H](CC1CCCCC1)C(=O)O [SEQ ID NO. 25, (D)Nle-(D)Phe-Trp-(D)ChAla] (H-[dNle][dF]W[dCha]-OH) | 42.8
Ac-YRMRYRYRRR-NH2 [SEQ ID NO. 4] | 0.036
CCCC[C@@H](N)C(=O)N[C@H](Cc1ccccc1)C(=O)N[C@@H](Cc1c[nH]c2ccccc12)C(=O)N[C@H](CCCNC(=N)N)C(=O)O [SEQ ID NO. 24, (D)Nle-(D)Phe-Trp(D)Arg] (H-[dNle][dF]W[dR]-OH) | 11
CCCC[C@@H](N)C(=O)N[C@H](Cc1ccccc1)C(=O)N[C@H](CCCC)C(=O)N[C@H](CCCNC(=N)N)C(=O)O [SEQ ID NO. 23, (D)Nle-(D)Phe-(D)Nle-(D)Arg] (H-[dNle][dF][dNle][dR]-OH) | 0.01
CCCC[C@@H](NC(=O)[C@@H](Cc1ccccc1)NC(=O)[C@H](N)Cc1ccccc1)C(=O)N[C@H](CC1CCCCC1)C(=O)O [SEQ ID NO. 13, (D)Phe-(D)Phe-(D)Nle-(D)ChAla] (H-[dF][dF][dNle][dCha]-OH) | 0.003
Ac-YRTRYRYRRR-NH2 [SEQ ID NO. 1] | 0.01
CCCC[C@@H](N)C(=O)N[C@H](Cc1ccccc1)C(=O)N[C@@H](C(=O)N[C@H](CCCNC(=N)N)C(=O)O)[C@H](C)CC [SEQ ID NO. 26, (D)Nle-(D)Phe-(D)Ile-(D)Arg] (H-[dNle][dF][dI][dR]-OH) | 0.016
N=C(N)NCCC[C@@H](NC(=O)[C@H](Cc1c[nH]c2ccccc12)NC(=O)[C@@H](Cc1ccccc1)NC(=O)[C@H](N)Cc1ccccc1)C(=O)O [SEQ ID NO. 14, (D)Phe-(D)Phe-Trp-(D)Arg] (H-[dF][dF]W[dR]-OH) | 4.95
Ac-RFFRYRYRRR-NH2 [SEQ ID NO. 3] | 0.022
Ac-RRFRYRYRRR-NH2 [SEQ ID NO. 5] | 0.142
CC[C@@H](C)[C@@H](NC(=O)[C@@H](Cc1ccccc1)NC(=O)[C@H](N)Cc1ccccc1)C(=O)N[C@H](CCCNC(=N)N)C(=O)O [SEQ ID NO. 16, (D)Phe-(D)Phe-(D)Ile-(D)Arg] | 0.002
CCCC[C@@H](N)C(=O)N[C@H](Cc1ccccc1)C(=O)N[C@@H](C(=O)N[C@H](CC1CCCCC1)C(=O)O)[C@H](C)CC [SEQ ID NO. 27, (D)Nle-(D)Phe-(D)Ile-(D)ChAla] (H-[dNle][dF][dI][dCha]-OH) | 1.45

Reference: patent US5610271A, “Kappa receptor selective opioid peptides” (Torrey Pines Institute for Molecular Studies, priority 1995, dated 1997)
